The values that follow come from article PMC2713172 (Biochemistry, 2008).

Data set [1] addresses T1, CYP2C9 F114L/F476L double mutant (Homo sapiens, UniProt P11712, F114L/F476L).
Another data set deals with CYP2C9. The following applies: structure 1OG5; cited from earlier work.
In data set [2] the target is T2, CYP2C9 F100L mutant (Homo sapiens, UniProt P11712, F100L).
The target of data set [3] is T3, CYP2C9 F114L mutant (Homo sapiens, UniProt P11712, F114L).
Data set [4] has as its target T2, CYP2C9 F100L mutant. This is another data set of the same source.
For data set [5], the target named is T4, CYP2C9 F476L mutant (Homo sapiens, UniProt P11712, F476L).
Data set [6] addresses T5, CYP2C9 F476W mutant (Homo sapiens, UniProt P11712, F476W).
The target of data set [7] is T6, CYP2C9 F114W mutant (Homo sapiens, UniProt P11712, F114W).
Data set [8] has as its target T1, CYP2C9 F114L/F476L double mutant. This is another data set of the same source.
Data set [9] concerns the target T7, wild-type CYP2C9 (Homo sapiens, UniProt P11712).
Data set [10] concerns the target T5, CYP2C9 F476W mutant. The source holds these as a separate data set.
Data set [11] concerns the target T7, wild-type CYP2C9. The conditions noted are these: wild-type CYP2C9.
In data set [12] the target is T6, CYP2C9 F114W mutant. The source holds these as a separate data set.
For data set [13], the target named is T4, CYP2C9 F476L mutant. The following applies: F476L.
Data set [14] has as its target T7, wild-type CYP2C9. The following applies: WT.
The target of data set [15] is T3, CYP2C9 F114L mutant. This is another data set of the same source.
Data set [16] addresses T7, wild-type CYP2C9. The source holds these as a separate data set.
Data set [17] deals with CYP2C9 F114W/F476W double mutant (Homo sapiens, UniProt P11712, F114W/F476W).
Substrate in data set [18]: CC(=O)C[C@@H](c1ccccc1)c1c(O)c2ccccc2oc1=O
The data set can be described thus: purified protein, by the assay type. The conditions noted are these: other: WT; substrate hydroxylation; 37.0 °C.

As to `CC(=O)C[C@@H](c1ccccc1)c1c(O)c2ccccc2oc1=O` [(S)-warfarin, (S)-Warfarin], the “ΔAmax (maximum observed difference 390–420 nm)” value in data set [1] was 15 ± 0.3 ×10^−3; on CYP2C9 F100L mutant [4] it was 6.5 ± 0.06 ×10^−3; at CYP2C9 F476L mutant [5] it was 11 ± 0.2 ×10^−3; at CYP2C9 F476W mutant [10], 9.3 ± 0.1 ×10^−3; on CYP2C9 F114W mutant [12], 12 ± 0.3 ×10^−3; on CYP2C9 F114L mutant [15] it was 10 ± 0.07 ×10^−3. Further, the “ΔAmax (maximum observed difference 390–420 nm)” value was 5.3 ± 0.1 ×10^−3 at wild-type CYP2C9 [16] and 12 ± 0.2 ×10^−3 in data set [17]. For the same molecule, the “percent of wild-type ΔA/K” value in [1] (F114L/F476L) turned out to be 75%; at CYP2C9 F100L mutant [4] (F100L) it was 262%; on CYP2C9 F476W mutant [10] (F476W), 225%; on CYP2C9 F114W mutant [12] (F114W), 636%; on CYP2C9 F114L mutant [15] (F114L) it was 139%; at wild-type CYP2C9 [16] (Wild-type), 100%. In data set [17] (F114W/F476W), the “percent of wild-type ΔA/K” value is on record as 303%. The “distance above the heme in crystal structure” value with CYP2C9 is ~ 10 Å. In addition, the “percent of wild-type kcat/Km” value at CYP2C9 F100L mutant [2] was found to be 133%; on CYP2C9 F114L mutant [3], 2%; at CYP2C9 F476W mutant [6], 500%; on CYP2C9 F114W mutant [7], 83%; in [8] it was 0.4%; on CYP2C9 F476L mutant [13], 2%. Also, the “percent of wild-type kcat/Km” value on wild-type CYP2C9 [14] worked out at 100%. Further, on wild-type CYP2C9 [9], the “distance from the heme to all ring protons” value is 6–7 Å. The “distance from the heme to the acetonyl methyl group” value on wild-type CYP2C9 [9] was ~ 9 Å. The “coupling of hydroxylation to NADPH consumption” value at wild-type CYP2C9 [11] is reported as ~ 4%.

B1: wild-type CYP2C9 (Homo sapiens) (protein)
chain: MALLLAVFLCLSCLLLLSLWRQSSGRGKLPPGPTPLPVIGNILQIGIKDISKSLTNLSKVYGPVFTLYFGLKPIVVLHGYEAVKEALIDLGEEFSGRGIFPLAERANRGFGIVFSNGKKWKEIRRFSLMTLRNFGMGKRSIEDRVQEEARCLVEELRKTKASPCDPTFILGCAPCNVICSIIFHKRFDYKDQQFLNLMEKLNENIKILSSPWIQICNNFSPIIDYFPGTHNKLLKNVAFMKSYILEKVKEHQESMDMNNPQDFIDCFLMKMEKEKHNQPSEFTIESLENTAVDLFGAGTETTSTTLRYALLLLLKHPEVTAKVQEEIERVIGRNRSPCMQDRSHMPYTDAVVHEVQRYIDLLPTSLPHAVTCDIKFRNYLIPKGTTILISLTSVLHDNKEFPNPEMFDPHHFLDEGGNFKKSKYFMPFSAGKRICVGEALAGMELFLFLTSILQNFNLKSLVDPKNLDTTPVVNGFASVPPFYQLCFIPV
Regarding B1, in [18], the Km stood at 4.1 ± 0.3 µM, the kcat is 0.25 ± 0.004 min⁻¹ and the kcat/Km is reported as 0.06 (100) min^−1 μM^−1.
